# Reference: patent publication US20250380696A1, “METHOD FOR CONTROLLING UNDESIRED PLANTS AND PROMOTING GROWTH OF USEFUL PLANTS” (ISHIHARA SANGYO KAISHA, LTD., priority 2022, published 2025)
# Columns and labels:
# Type in all cases: in vivo
# [1] = tested on: Italian ryegrass (Lolium multiflorum); experiment: (7) Herbicidal effect test, pot, spray at 2.8 to 3.0 leaf stage; details: 7th day after spraying
# Description: (§1) [formula] • X: growth inhibition rate when treated with α (g/ha) of compound A, • Y: growth inhibition rate when treated with β (g/ha) of compound B, • E: growth inhibition rate expected when treated with α (g/ha) of compound A and β (g/ha) of compound B (expected value).
# Upland soil was put in a 1/1,000,000 hectare pot, and seeds of Italian ryegrass (Lolium multiflorum) were sown. When Italian ryegrass reached 2.8 to 3.0 leaf stage, a water-based suspension containing tiafenacil as the active ingredient, prepared by a conventional method for preparing a water-based suspension, and an emulsifiable concentrate containing pethoxamid as the active ingredient (tradename: Successor 600, manufactured by Stahler Suisse SA) or an emulsifiable concentrate containing dimethenamid-P as the active ingredient (tradename: Fieldstar P emulsifiable concentrate, manufactured by BASF) were diluted with water (in an amount corresponding to 200 liter per hectare) containing 0.5 vol % of an agricultural spreader (tradename: Destiny HC, manufactured by Winfield Solutions, LLC.) and sprayed by a small spray gun (model: W-101-132G, manufactured by ANEST IWATA Corporation). On the 7th day after spraying, the state of growth of the Italian ryegrass was visually observed, and the growth inhibition rate (%) was obtained in accordance with the evaluation standards described in the above (1) herbicidal effect test, and the results are shown in Table 7. Further, the expected value of the growth inhibition rate (%) was calculated in accordance with the Colby's formula described in the above (1) herbicidal effect test, and the results are also shown in Table 7.
# [2] = tested on: waterhemp (Amaranthus tuberculatus); experiment: (12) Herbicidal effect test, pot, spray at 6.0 to 8.5 leaf stage; details: 13th day after spraying
# Description: as §1
# Upland soil was put in a 1/1,000,000 hectare pot, and seeds of waterhemp (Amaranthus tuberculatus) were sown. When waterhemp reached 6.0 to 8.5 leaf stage, a water-based suspension containing tiafenacil as the active ingredient, prepared by a conventional method for preparing a water-based suspension, and an emulsifiable concentrate containing S-metolachlor as the active ingredient (tradename: Dual Gold, manufactured by Syngenta), a wettable powder containing metribuzin as the active ingredient (tradename: SENCOR wettable powder, manufactured by Bayer Crop Science) or water dispersible granules containing pyroxasulfone as the active ingredient (tradename: Sakura, manufactured by Bayer Crop Science) were diluted with water (in an amount corresponding to 200 liter per hectare) containing 0.5 vol % of an agricultural spreader (tradename: Destiny HC, manufactured by Winfield Solutions, LLC.) and sprayed by a small spray gun (model: W-101-132G, manufactured by ANEST IWATA Corporation). On the 13th day after spraying, the state of growth of the waterhemp was visually observed, and the growth inhibition rate (%) was obtained in accordance with the evaluation standards described in the above (1) herbicidal effect test, and the results are shown in Table 12. Further, the expected value of the growth inhibition rate (%) was calculated in accordance with the Colby's formula described in the above (1) herbicidal effect test, and the results are also shown in Table 12.
# [3] = tested on: horseweed (Conyza canadensis); experiment: (14) Herbicidal effect test, pot, spray at diameter of 12 to 17 cm; details: 6th day after spraying
# Description: as §1
# Upland soil was put in a 1/1,000,000 hectare pot, and seeds of horseweed (Conyza canadensis) were sown. When the horseweed reached a diameter of 12 to 17 cm, a water-based suspension containing tiafenacil as the active ingredient, prepared by a conventional method for preparing a water-based suspension, and an emulsifiable concentrate containing S-metolachlor as the active ingredient (tradename: Dual Gold, manufactured by Syngenta), a wettable powder containing metribuzin as the active ingredient (tradename: SENCOR wettable powder, manufactured by Bayer Crop Science) or water dispersible granules containing pyroxasulfone as the active ingredient (tradename: Sakura, manufactured by Bayer Crop Science) were diluted with water (in an amount corresponding to 200 liter per hectare) containing 0.5 vol % of an agricultural spreader (tradename: Destiny HC, manufactured by Winfield Solutions, LLC.) and sprayed by a small spray gun (model: W-101-132G, manufactured by ANEST IWATA Corporation). On the 6th day after spraying, the state of growth of the horseweed was visually observed, and the growth inhibition rate (%) was obtained in accordance with the evaluation standards described in the above (1) herbicidal effect test, and the results are shown in Table 14. Further, the expected value of the growth inhibition rate (%) was calculated in accordance with the Colby's formula described in the above (1) herbicidal effect test, and the results are also shown in Table 14.
# [4] = tested on: horseweed (Conyza canadensis); experiment: (15) Herbicidal effect test, pot, spray at diameter of 13 to 19 cm; details: 3rd day after spraying
# Description: as §1
# Upland soil was put in a 1/1,000,000 hectare pot, and seeds of horseweed (Conyza canadensis) were sown. When the horseweed reached a diameter of 13 to 19 cm, a water-based suspension containing tiafenacil as the active ingredient, prepared by a conventional method for preparing a water-based suspension, and a wettable powder containing tri-allate as the active ingredient, prepared by a conventional method for preparing a wettable powder, an emulsifiable concentrate containing pethoxamid as the active ingredient (tradename: Successor 600, manufactured by Stähler Suisse SA) or an emulsifiable concentrate containing dimethenamid-P as the active ingredient (tradename: Fieldstar P emulsifiable concentrate, manufactured by BASF) were diluted with water (in an amount corresponding to 200 liter per hectare) containing 0.5 vol % of an agricultural spreader (tradename: Destiny HC, manufactured by Winfield Solutions, LLC.) and sprayed by a small spray gun (model: W-101-132G, manufactured by ANEST IWATA Corporation). On the 3rd day after spraying, the state of growth of the horseweed was visually observed, and the growth inhibition rate (%) was obtained in accordance with the evaluation standards described in the above (1) herbicidal effect test, and the results are shown in Table 15. Further, the expected value of the growth inhibition rate (%) was calculated in accordance with the Colby's formula described in the above (1) herbicidal effect test, and the results are also shown in Table 15.
structure (smiles),measurement,setting,value
COC(=O)CCNC(=O)C(C)Sc1cc(-n2c(=O)cc(C(F)(F)F)n(C)c2=O)c(F)cc1Cl (stereo not shown) [tiafenacil],Growth inhibition rate (%) Measured value,[1]; Dose 6.25 g/ha,15%
same,Growth inhibition rate (%) Measured value,[1]; Dose 12.5 g/ha,37%
same,Growth inhibition rate (%) Measured value,[1]; Dose 25 g/ha,33%
same,Growth inhibition rate (%) Measured value,[2]; Dose 6.25 g/ha,33%
same,Growth inhibition rate (%) Measured value,[3]; Dose 6.25 g/ha,23%
same,Growth inhibition rate (%) Measured value,[4]; Dose 6.25 g/ha,17%
COC[C@H](C)N(C(=O)CCl)c1c(C)csc1C [dimethenamid-P],Growth inhibition rate (%) Measured value,[1]; Dose 60 g/ha,0%
same,Growth inhibition rate (%) Measured value,[1]; Dose 120 g/ha,3%
same,Growth inhibition rate (%) Measured value,[1]; Dose 240 g/ha,8%
same,Growth inhibition rate (%) Measured value,[1]; Dose 750 g/ha,12%
same,Growth inhibition rate (%) Measured value,[1]; Dose 1500 g/ha,15%
same,Growth inhibition rate (%) Measured value,[4]; Dose 60 g/ha,0%
same,Growth inhibition rate (%) Measured value,[4]; Dose 375 g/ha,0%
same,Growth inhibition rate (%) Measured value,[4]; Dose 750 g/ha,0%
CSc1nnc(C(C)(C)C)c(=O)n1N [metribuzin],inhibition at 9.38 g/ha,"[2]; Amaranthus tuberculatus, Dose 9.38 g/ha, read-out: Growth inhibition rate (%) Measured value",5%
same,inhibition at 550 g/ha,"[2]; Amaranthus tuberculatus, Dose 550 g/ha, read-out: Growth inhibition rate (%) Measured value",37%
same,inhibition at 1100 g/ha,"[2]; Amaranthus tuberculatus, Dose 1100 g/ha, read-out: Growth inhibition rate (%) Measured value",50%
same,inhibition at 9.38 g/ha,"[3]; Erigeron canadensis, Dose 9.38 g/ha, read-out: Growth inhibition rate (%) Measured value",0%
same,inhibition at 550 g/ha,"[3]; Erigeron canadensis, Dose 550 g/ha, read-out: Growth inhibition rate (%) Measured value",5%
same,inhibition at 1100 g/ha,"[3]; Erigeron canadensis, Dose 1100 g/ha, read-out: Growth inhibition rate (%) Measured value",5%
CC(C)N(C(=O)SCC(Cl)=C(Cl)Cl)C(C)C [tri-allate],inhibition at 75 g/ha,"[4]; Erigeron canadensis, Dose 75 g/ha, read-out: Growth inhibition rate (%) Measured value",0%
same,inhibition at 625 g/ha,"[4]; Erigeron canadensis, Dose 625 g/ha, read-out: Growth inhibition rate (%) Measured value",5%
same,inhibition at 1250 g/ha,"[4]; Erigeron canadensis, Dose 1250 g/ha, read-out: Growth inhibition rate (%) Measured value",3%
Cn1nc(C(F)(F)F)c(CS(=O)(=O)C2=NOC(C)(C)C2)c1OC(F)F [pyroxasulfone],inhibition at 7.5 g/ha,"[2]; Amaranthus tuberculatus, Dose 7.5 g/ha, read-out: Growth inhibition rate (%) Measured value",10%
same,inhibition at 250 g/ha,"[2]; Amaranthus tuberculatus, Dose 250 g/ha, read-out: Growth inhibition rate (%) Measured value",17%
same,inhibition at 500 g/ha,"[2]; Amaranthus tuberculatus, Dose 500 g/ha, read-out: Growth inhibition rate (%) Measured value",13%
same,inhibition at 7.5 g/ha,"[3]; Erigeron canadensis, Dose 7.5 g/ha, read-out: Growth inhibition rate (%) Measured value",0%
same,inhibition at 250 g/ha,"[3]; Erigeron canadensis, Dose 250 g/ha, read-out: Growth inhibition rate (%) Measured value",0%
same,inhibition at 500 g/ha,"[3]; Erigeron canadensis, Dose 500 g/ha, read-out: Growth inhibition rate (%) Measured value",0%
CCOCCN(C(=O)CCl)C(=C(C)C)c1ccccc1 [pethoxamid],Growth inhibition rate (%) Measured value,[1]; Dose 93.75 g/ha,0%
same,Growth inhibition rate (%) Measured value,[1]; Dose 187.5 g/ha,0%
same,Growth inhibition rate (%) Measured value,[1]; Dose 375 g/ha,7%
same,Growth inhibition rate (%) Measured value,[1]; Dose 750 g/ha,7%
same,Growth inhibition rate (%) Measured value,[1]; Dose 1500 g/ha,12%
same,Growth inhibition rate (%) Measured value,[4]; Dose 93.8 g/ha,0%
same,Growth inhibition rate (%) Measured value,[4]; Dose 375 g/ha,0%
same,Growth inhibition rate (%) Measured value,[4]; Dose 750 g/ha,0%
CCc1cccc(C)c1N(C(=O)CCl)[C@@H](C)COC [S-metolachlor],Growth inhibition rate (%) Measured value,[2]; Dose 7.5 g/ha,0%
same,Growth inhibition rate (%) Measured value,[2]; Dose 375 g/ha,0%
same,Growth inhibition rate (%) Measured value,[2]; Dose 750 g/ha,0%
same,Growth inhibition rate (%) Measured value,[3]; Dose 7.5 g/ha,0%
same,Growth inhibition rate (%) Measured value,[3]; Dose 375 g/ha,0%
same,Growth inhibition rate (%) Measured value,[3]; Dose 750 g/ha,0%
